# According to patent US5986103A, “2-alkyl-1H-imidazole-5-carboxylic acids” (Hoechst Marion Roussel, priority 1995, dated 1999):
# pIC50: −log10 of the molar value.
# How the values were obtained:
# [1] = system: Endothelin; experiment: Antagonistic activity of endothelin in a demedullated rat (inhibition of increase in arterial pressure induced by endothelin); type: in vivo, Male Sprague-Dawley rats; conditions: product 10 mg/kg injected (pudendal vein) 10 minutes before endothelin
# Method: 3) Test for Antagonistic Activity of Endothelin in a Demedullated Rat
# Male Sprague-Dawley rats (250 to 350 g) are anaesthetized (sodium pentobarbital 60 mg/kg injected by intraperitoneal route). The animal is placed under assisted respiration and a bilateral section of the vagus nerves is carried out. The rat is then demedullated.
# The average arterial pressure is recorded with a heparin catheter (PE50) introduced into the carotid of the animal and connected via a pressure sensor and an amplifier to a recorder (Gould pressure processor). A catheter is implanted in the pudendal vein in order to allow injection of the molecules to be studied. After a stabilization period (about 15 minutes), the product or the solvent is injected 10 minutes before a range of increasing doses of endothelin which are injected every 2 minutes (0.1-0.3-1-3-10 ug/kg).
# The antagonistic activity of the products is estimated by the percentage inhibition of the increase in pressure induced by endothelin at doses of 3 and 10 ug/kg.
# [2] = target: T1, Endothelin B receptor (Rattus norvegicus, UniProt P21451); experiment: Affinity for the Endothelin B receptor: displacement of 125I endothelin from rat cortex plus cerebellum membrane preparation; type: binding; conditions: rat rear cortex plus cerebellum membranes, 25° C. for 60 minutes, pH 7.4, read-out: Endothelin B receptor IC50 in nanomoles
# T1 construct: A membrane preparation is prepared from the rear cortex plus the cerebellum of a rat; from tissue; host or cells: rat rear cortex plus cerebellum, membrane preparation
# T1 sequence (P21451 27-442): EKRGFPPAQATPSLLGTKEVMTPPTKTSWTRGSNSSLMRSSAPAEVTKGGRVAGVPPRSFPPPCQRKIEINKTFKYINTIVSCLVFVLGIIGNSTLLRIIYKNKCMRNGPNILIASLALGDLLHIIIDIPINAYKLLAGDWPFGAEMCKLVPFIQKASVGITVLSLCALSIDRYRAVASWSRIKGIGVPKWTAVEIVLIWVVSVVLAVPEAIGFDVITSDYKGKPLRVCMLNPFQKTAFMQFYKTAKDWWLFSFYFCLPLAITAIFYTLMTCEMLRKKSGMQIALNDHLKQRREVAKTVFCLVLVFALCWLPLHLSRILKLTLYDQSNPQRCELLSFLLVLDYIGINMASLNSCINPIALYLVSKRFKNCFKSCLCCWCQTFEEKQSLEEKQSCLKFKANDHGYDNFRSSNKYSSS
# Method: 2) Study of the Affinity for the Endothelin B Receptor
# A membrane preparation is prepared from the rear cortex plus the cerebellum of a rat. The tissue is ground up in a POLYTRON in a 50 mM Tris buffer pH=7.4.
# After 30 minutes at 250C (W.B.) the homogenate is centrifuged at 30,000 g for 15 minutes (2 centrifugations with intermediate take-up in the Tris buffer pH. 7.4).
# The pellets are suspended in an incubation buffer (25 mM Tris, 5 microg/ml pepstatin A, 3 microg/ml aprotinin, 0.1 mM PMSF, 3mM EDTA, 1 mM EGTA pH 7.4).
# (§1) 2 ml aliquoted fractions are distributed in hemolysis tubes and 125I endothelin (approximately 50,000 dpm/tube) and the product to be studied are added. (The product is first tested at 3×10^-5 M three times). When the tested product displaces more than 50% of the radioactivity specifically bound to the receptor, it is tested again according to a range of 7 concentrations in order to determine the concentration which inhibits by 50% the radioactivity specifically bound to the receptor. In this way the 50% inhibitory concentration is determined.
# (§2) The non-specific bond is determined by the addition of endothelin at 10^-6 M (three times). After incubation at 25° C. for 60 minutes, replacing in a water-bath at 0° C. for 5 minutes, filtration under reduced pressure and rinsing with Tris buffer pH 7.4, the radioactivity is counted in the presence of scintillating Triton. […]
# [3] = target: T2, Endothelin A receptor (Rattus norvegicus, UniProt P26684); experiment: Affinity for the Endothelin A receptor: displacement of 125I endothelin from rat heart (ventricles) membrane preparation; type: binding; conditions: rat heart (ventricles) membranes, 25° C. for 60 minutes, pH 7.4, read-out: Endothelin A receptor IC50 in nanomoles
# T2 construct: A membrane preparation is prepared from the heart (ventricles) of a rat; from tissue; host or cells: rat heart ventricles, membrane preparation
# T2 sequence (P26684 21-426): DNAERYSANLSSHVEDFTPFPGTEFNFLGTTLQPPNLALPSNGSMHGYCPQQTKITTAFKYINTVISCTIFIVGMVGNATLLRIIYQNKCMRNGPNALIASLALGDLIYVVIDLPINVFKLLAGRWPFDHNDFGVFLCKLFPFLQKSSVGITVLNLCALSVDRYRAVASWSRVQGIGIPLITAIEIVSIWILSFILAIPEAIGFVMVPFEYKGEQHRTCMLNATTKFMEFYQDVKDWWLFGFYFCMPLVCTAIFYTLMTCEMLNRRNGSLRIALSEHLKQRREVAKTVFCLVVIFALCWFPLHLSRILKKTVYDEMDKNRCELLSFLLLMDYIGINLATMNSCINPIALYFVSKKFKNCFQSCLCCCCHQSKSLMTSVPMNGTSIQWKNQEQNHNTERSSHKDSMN
# Method: 1) Study of the Affinity for the Endothelin A Receptor
# A membrane preparation is prepared from the heart (ventricles) of a rat. The tissue is ground up in a POLYTRON in a 50 mM Tris buffer pH=7.4.
# After 30 minutes at 25° C. (W.B.) the homogenate is centrifuged at 30,000 g for 15 minutes (2 centrifugations with intermediate take-up in the Tris buffer pH. 7.4).
# The pellets are suspended in an incubation buffer (25 mM Tris, 5 microg/ml pepstatin A, 3 microg/ml aprotinin, 0.1 mM PMSF, 3 mM EDTA, 1 mM EGTA pH 7.4).
# as §1, with “^125 I” for “125I”, “of” for “of the”
# as §2
pIC50 [2],pIC50 [3],SMILES,% inhibition of vasoconstriction Et1 3 μg/kg [1],% inhibition of vasoconstriction Et1 10 μg/kg [1] [%]
7.05,8.60,"CCCc1nc(Sc2ccc(OCC(=O)O)cc2)c(C(=O)O)n1Cc1cc2c(cc1Cl)OCO2 [Example 1, 4-((4-(carboxymethoxy)phenyl)thio)-1-((6-chloro-1,3-benzodioxol5-yl)methyl)2-propyl1H-imidazole5-carboxylic acid]",-52%,-50
7.11,8.60,"CC(C)c1nc(Sc2ccc(CCC(=O)O)cc2)c(C(=O)O)n1Cc1cc2c(cc1Cl)OCO2 [Example 3, 4-((4-(2-carboxyethyl)phenyl)thio)-1-((6-chloro-1,3-benzodioxol-5-yl)methyl)-2-(1-methylethyl)-1H-imidazole-5-carboxylic acid]",+7%,-31
